# From PMC5378956, “Inhibition of delta-secretase improves cognitive functions in mouse models of Alzheimer's disease” (Nature Communications, 2017)
# How the values were obtained:
# [1] = test system: tau P301S mice
# Experimental: (§1) Only 2-month-old male mice were used in the present study. Sample size was determined by Power and Precision (Biostat). The animals were randomly allocated to experimental groups. Investigators were blinded to the group allocation during the animal experiments. […] The protocol was reviewed and approved by the Emory Institutional Animal Care and Use Committee. Rabbit anti-tau N368 (1:1,000), and anti-APP585N (1:500) antibody, which specifically recognize the δ-secretase-derived tau and APP fragments respectively, were described previously. […] TUNEL in situ cell death detection kit was from Roche (Indianapolis, IN). […] All chemicals not included above were purchased from Sigma-Aldrich (St. Louis, MO). Recombinant δ-secretase was obtained from Sino Biological (Beijing, China), recombinant cathepsin-S was obtained from Athens Research and Technology (Athens, GA), recombinant caspase-3 and caspase-8 were obtained from Millipore (Billerica, MA).
# Synaptic density was determined by electron microscopy as described previously. After deep anaesthesia, mice were perfused transcardially with 2% glutaraldehyde and 3% paraformaldehyde in PBS. Hippocampal slices were post-fixed in cold 1% OsO4 for 1 h. Samples were prepared and examined using standard procedures. Ultrathin sections (90 nm) were stained with uranyl acetate and lead acetate and viewed at 100 kV in a JEOL 200CX electron microscope. Four mice were examined in each group. Synapses were identified by the presence of synaptic vesicles and post synaptic densities.
# Electrophysiological analysis was carried out as described previously. […] The hippocampi were cut into 400-μm thick transverse slices with a vibratome. A 0.1 MΩ tungsten monopolar electrode was used to stimulate the Schaffer collaterals. The field excitatory post synaptic potentials (fEPSPs) were recorded in CA1 stratum radiatum by a glass microelectrode filled with a-CSF with resistance of 3–4 MΩ. The stimulation output (Master-8; AMPI, Jerusalem) was controlled by the trigger function of an EPC9 amplifier (HEKA Elektronik, Lambrecht, Germany). fEPSPs were recorded under current-clamp mode. Data were filtered at 3 kHz and digitized at sampling rates of 20 kHz using Pulse software (HEKA Elektronik). The stimulus intensity (0.1 ms duration, 10–30 μA) was set to evoke 40% of the maximum f-EPSP and the test pulse was applied at a rate of 0.033 Hz. LTP of fEPSPs was induced by three theta-burst-stimulation (TBS; 4 pulses at 100 Hz, repeated three times with a 200-ms interval). Paired-pulse facilitation (PPF) was examined by applying pairs of pulses, which were separated by 20–500 ms intervals. The magnitudes of LTP are expressed as the mean percentage of baseline fEPSP initial slope.
# The mice were trained in a round, water-filled tub (52′ diameter) in an environment rich with extra maze cues. An invisible escape platform was located in a fixed spatial location 1 cm below the water surface independent of a subject's start position on a particular trial. In this manner, subjects needed to utilize extra maze cues to determine the platform's location. At the beginning of each trial, the mouse was placed in the water maze with their paws touching the wall from 1 of 4 different starting positions (N, S, E, W). […] On reaching the invisible escape platform, subjects were left on it for an additional 5 s to allow for survey of the spatial cues in the environment to guide future navigation to the platform. After each trial, subjects were dried and kept in a dry plastic holding cage filled with paper towels to allow the subjects to dry off. […] The percentage of time that was spent in the quadrant, which previously contained the escape platform during task acquisition, was measured over 60 s. All trials were analysed for latency, swim path length and swim speed by means of MazeScan (Clever Sys, Inc.).
# The solution was changed each day.
# [2] = test system: 5XFAD mice; details: 5 or 10 mg kg-1 oral; 1, 2, 4 h
# [3] = test system: 5XFAD mice
# Experimental: as §1
# The mice were trained in a round, water-filled tub (52′ diameter) in an environment rich with extra maze cues. An invisible escape platform was located in a fixed spatial location 1 cm below the water surface independent of a subject's start position on a particular trial. In this manner, subjects needed to utilize extra maze cues to determine the platform's location. At the beginning of each trial, the mouse was placed in the water maze with their paws touching the wall from 1 of 4 different starting positions (N, S, E, W). […] On reaching the invisible escape platform, subjects were left on it for an additional 5 s to allow for survey of the spatial cues in the environment to guide future navigation to the platform. After each trial, subjects were dried and kept in a dry plastic holding cage filled with paper towels to allow the subjects to dry off. The temperature of the water was monitored every hour so that mice were tested in water that was between 22 and 25 °C. Following the 5 days of task acquisition, a probe trial was presented during which the platform was removed. The percentage of time that was spent in the quadrant, which previously contained the escape platform during task acquisition, was measured over 60 s. All trials were analysed for latency, swim path length and swim speed by means of MazeScan (Clever Sys, Inc.).
# After rinsed in distilled water, the sections were transferred to blocking solution (1% sodium hydroxide and 0.9% hydrogen peroxide) for 20 min. […] The sections were washed with 50% ethanol and placed in distilled water. Then the sections were covered with glass cover using mounting solution.
# To detect the Aβ deposition in 5XFAD mice, the mice brains were homogenized in 8 × mass of 5 M guanidine HCl/50 mM Tris–HCl (pH 8.0), and incubated at room temperature for 3 h. Then the samples were diluted with cold reaction buffer (phosphate buffered saline with 5% BSA and 0.03% Tween 20, supplemented with protease inhibitor cocktail) and centrifuged at 16,000g for 20 min at 4 °C. The supernatant were analysed by human Aβ42 and Aβ40 ELISA kit according to the manufacturer's instructions (KHB3441 and KHB3481, Invitrogen). The Aβ42 and Aβ40 concentrations were determined by comparison with the standard curve. The concentrations of IL-1β and TNFα in the mice brain were detected using mouse IL-1β and TNFα ELISA kit from eBioscience according to the manufacture's instructions.
smiles,measurement,setting,value
"Nc1ccc(N2CCOCC2)c2nonc12 [compound 11, 7-(morpholin-4-yl)-2,1,3-benzoxadiazol-4-amine]","phosphorylation, aggregation and oligomerization of tau","[1]; 10 mg kg−1 d−1 oral, 3 months",attenuated
same,cleavage of mouse and human tau after N368,"[1]; 10 mg kg−1 d−1 oral, 3 months, Western blot",decreased the cleavage
same,Morris water maze latency to platform,[1]; five acquisition days,decreased latency to platform
same,percentage of AT8- and AT100-positive neurons,[1]; hippocampus and cortex,decreased
same,percentage of neurons positive of tau N368,"[1]; hippocampus and cortex, immunohistochemistry",decreased
same,LTP amplitude,"[1]; mouse, in vivo",significantly elevated the LTP amplitude
same,behavioural deficits in probe trial (time in target quadrant),"[1]; mouse, in vivo",ameliorated
same,dendritic spine density (Golgi stain),"[1]; mouse, in vivo",increased the density of spines
same,swim speed,"[1]; mouse, in vivo",not affected
same,concentrations of IL-1β and TNFα,[1]; tau P301S mice,reduced the concentrations of inflammatory cytokines IL-1β and TNFα
same,activity of δ-secretase in the brain,"[1]; wild-type and tau P301S mice, 10 mg kg−1 d−1 oral, 3 months",significantly inhibited
same,concentrations of Aβ in plasma and brain after single dose,[2],time- and dose-dependently decreased
same,"Aβ deposition, time and dose dependence","[3]; 2, 5 or 10 mg kg−1 d−1 for 1.5 and 3 months",attenuated Aβ deposition in a time- and dose-dependent manner
same,concentrations of IL-1β and TNFα,[3]; 5XFAD mice,reduced the concentrations of inflammatory cytokines IL-1β and TNFα
same,activity of δ-secretase in mice brain,"[3]; 5XFAD, oral once daily, 3 months",significantly inhibited
same,concentrations of Aβ 1–40 and Aβ 1–42 in brain lysates,[3]; ELISA,significantly decreased
same,cleavage of APP by δ-secretase at N373 and N585,[3]; Western blot,decreased the cleavage of APP
same,Morris water maze distance to platform,[3]; acquisition,decreased distance to platform
same,LTP deficits,"[3]; mouse, in vivo",significantly reversed the LTP deficits
same,density of spines (Golgi stain),"[3]; mouse, in vivo",increased the density of spines
same,expression of C83,"[3]; mouse, in vivo",not altered
same,expression of C99,"[3]; mouse, in vivo",decreased
same,plaque deposition in hippocampus and frontal cortex (Thioflavin S),"[3]; mouse, in vivo",attenuated
same,"probe test, time in target quadrant","[3]; mouse, in vivo",spent more time in the target quadrant
same,swim speed,"[3]; mouse, in vivo",not affected
